What all share (assay): cells
Experiment [1] concerns COR-L23. Format: functional, cell-based, Homo sapiens. The settings on record: Homo sapiens, COR-L23.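 Further: cell viability assay measuring how strongly compounds suppress growth of COR-L23 cells.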
Description: SANGER: Inhibition of human COR-L23 cell growth in a cell viability assay.
Experiment [2] deals with Calu-3. Type of experiment: functional, cell-based, Homo sapiens. The settings on record: Homo sapiens, Calu-3.
Description: SANGER: Inhibition of human Calu-3 cell growth in a cell viability assay.
Experiment [3] deals with DU-145. Format: functional, cell-based, Homo sapiens. The settings on record: Homo sapiens, DU-145.
Description: SANGER: Inhibition of human DU-145 cell growth in a cell viability assay.
Experiment [4] relates to ECC4. Format: functional, cell-based, Homo sapiens. The settings on record: Homo sapiens, ECC4.
Description: SANGER: Inhibition of human ECC4 cell growth in a cell viability assay.
The subject of experiment [5] is EFM-19. Type of experiment: functional, cell-based, Homo sapiens. The settings on record: Homo sapiens, EFM-19.
Description: SANGER: Inhibition of human EFM-19 cell growth in a cell viability assay.
Experiment [6] has as its system FaDu. Format: functional, cell-based, Homo sapiens. The settings on record: Homo sapiens, FaDu.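 Further: cell viability readout of growth inhibition in FaDu cells.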
Description: SANGER: Inhibition of human FADU cell growth in a cell viability assay.
Experiment [7] concerns HCC70. Format: functional, cell-based, Homo sapiens. The settings on record: Homo sapiens, HCC70.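 Further: cell viability assay measuring how strongly the compound suppresses proliferation of HCC70 cells.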
Description: SANGER: Inhibition of human HCC70 cell growth in a cell viability assay.
For experiment [8], the system named is HMV-2 cell line. Type of experiment: functional, cell-based, Homo sapiens. The settings on record: Homo sapiens, HMV-2.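 Further: growth inhibition of HMV-II cells, read out with a cell viability assay.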
Description: SANGER: Inhibition of human HMV-II cell growth in a cell viability assay.
Experiment [9] relates to HO-1-N-1. Type of experiment: functional, cell-based, Homo sapiens. The settings on record: Homo sapiens, HO-1-N-1.
Description: SANGER: Inhibition of human HO-1-N-1 cell growth in a cell viability assay.
For experiment [10], the system named is HSC-4. Type of experiment: functional, cell-based, Homo sapiens. The settings on record: Homo sapiens, HSC-4.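 Further: growth inhibition of human HSC-4 cells, read out with a cell viability assay.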
Description: SANGER: Inhibition of human HSC-4 cell growth in a cell viability assay.
In experiment [11] the test system is HuCCT-1. Type of experiment: functional, cell-based, Homo sapiens, HuCCT1. The settings on record: Homo sapiens, HuCCT-1.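 Further: growth inhibition of HuCCT-1 cells, read out by a cell viability assay.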
Description: SANGER: Inhibition of human HuCCT1 cell growth in a cell viability assay.
The test system of experiment [12] is KYSE-450. Type of experiment: functional, cell-based, Homo sapiens. The settings on record: Homo sapiens, KYSE-450.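 Further: cell growth inhibition measured by a viability assay in human KYSE-450 cells.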
Description: SANGER: Inhibition of human KYSE-450 cell growth in a cell viability assay.
Experiment [13] relates to LCLC-103H cell line. Type of experiment: functional, cell-based, Homo sapiens. The settings on record: Homo sapiens, LCLC-103H.
Description: SANGER: Inhibition of human LCLC-103H cell growth in a cell viability assay.
Experiment [14] concerns LK-2. Type of experiment: functional, cell-based, Homo sapiens. The settings on record: Homo sapiens, LK-2.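 Further: growth inhibition of LK-2 cells, read out with a viability assay.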
Description: SANGER: Inhibition of human LK-2 cell growth in a cell viability assay.
The subject of experiment [15] is MDA-MB-415. Type of experiment: functional, cell-based, Homo sapiens. The settings on record: Homo sapiens, MDA-MB-415.
In experiment [16] the test system is MDA-MB-453. Type of experiment: functional, cell-based, Homo sapiens. The settings on record: Homo sapiens, MDA-MB-453.
Description: SANGER: Inhibition of human MDA-MB-453 cell growth in a cell viability assay.
Experiment [17] deals with MG-63. Type of experiment: functional, cell-based, Homo sapiens. The settings on record: Homo sapiens, MG-63.
Description: SANGER: Inhibition of human MG-63 cell growth in a cell viability assay.
For experiment [18], the system named is MKN-7. Format: functional, cell-based, Homo sapiens. The settings on record: Homo sapiens, MKN-7.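 Further: growth inhibition of MKN-7 cells, read out with a cell viability assay.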
Description: SANGER: Inhibition of human MKN7 cell growth in a cell viability assay.
Experiment [19] has as its system NALM-6. Type of experiment: functional, cell-based, Homo sapiens. The settings on record: Homo sapiens, NALM-6.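 Further: growth inhibition of NALM-6 cells, read out with a cell viability assay.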
Description: SANGER: Inhibition of human NALM-6 cell growth in a cell viability assay.
Experiment [20] has as its system NCI-H2052. Type of experiment: functional, cell-based, Homo sapiens. The settings on record: Homo sapiens, NCI-H2052.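 Further: growth inhibition of NCI-H2052 cells, read out with a cell viability assay.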
Description: SANGER: Inhibition of human NCI-H2052 cell growth in a cell viability assay.
Experiment [21] has as its system NCI-H2081. Format: functional, cell-based, Homo sapiens. The settings on record: Homo sapiens, NCI-H2081.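 Further: growth inhibition of human NCI-H2081 cells, read out with a cell viability assay.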
Description: SANGER: Inhibition of human NCI-H2081 cell growth in a cell viability assay.
The test system of experiment [22] is NCI-H2405. Type of experiment: functional, cell-based, Homo sapiens. The settings on record: Homo sapiens, NCI-H2405.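 Further: growth inhibition of the human cell line, read out with a cell viability assay.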
Description: SANGER: Inhibition of human NCI-H2405 cell growth in a cell viability assay.
Experiment [23] concerns NCI-H345. Type of experiment: functional, cell-based, Homo sapiens. The settings on record: Homo sapiens, NCI-H345.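 Further: growth inhibition of NCI-H345 cells measured with a cell viability assay.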
Description: SANGER: Inhibition of human NCI-H345 cell growth in a cell viability assay.
Experiment [24] deals with NCI-H64. Format: functional, cell-based, Homo sapiens. The settings on record: Homo sapiens, NCI-H64.
Description: SANGER: Inhibition of human NCI-H64 cell growth in a cell viability assay.
The subject of experiment [25] is PANC-08-13. Format: functional, cell-based, Homo sapiens. The settings on record: Homo sapiens, PANC-08-13.
Description: SANGER: Inhibition of human PANC-08-13 cell growth in a cell viability assay.
Experiment [26] deals with PC-3. Type of experiment: functional, cell-based, Homo sapiens. The settings on record: Homo sapiens, PC-3.
Description: SANGER: Inhibition of human PC-3 cell growth in a cell viability assay.
For experiment [27], the system named is SK-MEL-30. Format: functional, cell-based, Homo sapiens. The settings on record: Homo sapiens, SK-MEL-30.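 Further: growth inhibition of SK-MEL-30 cells, determined with a cell viability assay.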
Description: SANGER: Inhibition of human SK-MEL-30 cell growth in a cell viability assay.
The subject of experiment [28] is SK-MES-1. Format: functional, cell-based, Homo sapiens. The settings on record: Homo sapiens, SK-MES-1.
Description: SANGER: Inhibition of human SK-MES-1 cell growth in a cell viability assay.
Experiment [29] concerns SUP-T1. Format: functional, cell-based, Homo sapiens. The settings on record: Homo sapiens, SUP-T1.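 Further: growth inhibition of human SUP-T1 cells, read out as cell viability.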
Description: SANGER: Inhibition of human SUP-T1 cell growth in a cell viability assay.
The test system of experiment [30] is SW13. Format: functional, cell-based, Homo sapiens. The settings on record: Homo sapiens, SW13.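 Further: IC50 is inhibition of SW13 cell growth, read out with a cell viability assay.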
Description: SANGER: Inhibition of human SW13 cell growth in a cell viability assay.
The test system of experiment [31] is SW1417. Format: functional, cell-based, Homo sapiens. The settings on record: Homo sapiens, SW1417.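 Further: growth inhibition of human SW1417 cells, read out with a cell viability assay.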
Description: SANGER: Inhibition of human SW1417 cell growth in a cell viability assay.
The subject of experiment [32] is SW1463. Format: functional, cell-based, Homo sapiens. The settings on record: Homo sapiens, SW1463.
Description: SANGER: Inhibition of human SW1463 cell growth in a cell viability assay.
Experiment [33] relates to 23132-87. Format: functional, cell-based, Homo sapiens. The settings on record: Homo sapiens.
Description: SANGER: Inhibition of human 23132-87 cell growth in a cell viability assay.
The subject of experiment [34] is 8505C. Format: functional, cell-based, Homo sapiens. The settings on record: Homo sapiens, 8505C.
Description: SANGER: Inhibition of human 8505C cell growth in a cell viability assay.
For experiment [35], the system named is A-431. Format: functional, cell-based, Homo sapiens. The settings on record: Homo sapiens, A-431.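 Further: growth inhibition of A-431 cells, determined with a cell viability read-out.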
Description: SANGER: Inhibition of human A431 cell growth in a cell viability assay.
Experiment [36] deals with A673. Type of experiment: functional, cell-based, Homo sapiens. The settings on record: Homo sapiens, A673.
Description: SANGER: Inhibition of human A673 cell growth in a cell viability assay.
Experiment [37] relates to ACHN. Type of experiment: functional, cell-based, Homo sapiens. The settings on record: Homo sapiens, ACHN.
Description: SANGER: Inhibition of human ACHN cell growth in a cell viability assay.
Experiment [38] concerns BCPAP. Type of experiment: functional, cell-based, Homo sapiens. The settings on record: Homo sapiens, BCPAP.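 Further: growth inhibition of BCPAP cells, read out in a cell viability assay.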
Description: SANGER: Inhibition of human BCPAP cell growth in a cell viability assay.
The test system of experiment [39] is BFTC-905. Type of experiment: functional, cell-based, Homo sapiens. The settings on record: Homo sapiens, BFTC-905.
Description: SANGER: Inhibition of human BFTC-905 cell growth in a cell viability assay.
The subject of experiment [40] is CAL-33. Type of experiment: functional, cell-based, Homo sapiens. The settings on record: Homo sapiens, CAL-33.
Description: SANGER: Inhibition of human CAL-33 cell growth in a cell viability assay.
The test system of experiment [41] is CAL-62. Format: functional, cell-based, Homo sapiens. The settings on record: Homo sapiens, CAL-62.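 Further: growth inhibition of CAL-62 cells, read out with a cell viability assay.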
Description: SANGER: Inhibition of human CAL-62 cell growth in a cell viability assay.
For experiment [42], the system named is TUR. Type of experiment: functional, cell-based, Homo sapiens. The settings on record: Homo sapiens, TUR.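 Further: growth inhibition of human TUR cells, read out with a cell viability assay.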
Description: SANGER: Inhibition of human TUR cell growth in a cell viability assay.
Experiment [43] relates to UO-31. Format: functional, cell-based, Homo sapiens. The settings on record: Homo sapiens, UO-31.
Description: SANGER: Inhibition of human U031 cell growth in a cell viability assay.
The subject of experiment [44] is CAMA-1. Type of experiment: functional, cell-based, Homo sapiens. The settings on record: Homo sapiens, CAMA-1.
Description: SANGER: Inhibition of human CAMA-1 cell growth in a cell viability assay.
Experiment [45] deals with CAPAN-1. Type of experiment: functional, cell-based, Homo sapiens. The settings on record: Homo sapiens, CAPAN-1.
Description: SANGER: Inhibition of human CAPAN-1 cell growth in a cell viability assay.
Experiment [46] concerns COLO-680N. Format: functional, cell-based, Homo sapiens. The settings on record: Homo sapiens, COLO-680N.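 Further: cell viability assay used to measure inhibition of COLO-680N cell growth.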
Description: SANGER: Inhibition of human COLO-680N cell growth in a cell viability assay.
The subject of experiment [47] is NB14. Format: functional, cell-based, Homo sapiens. The settings on record: Homo sapiens, NB14.
Description: SANGER: Inhibition of human NB14 cell growth in a cell viability assay.

Structures can show the parent of a compound that is named as a salt.

As a reminder, the IC50 is the concentration at which inhibition is half-maximal. High values mean a need for much substance, low ones inhibition by little substance.

Consider `COC1=CC(c2cc3ccccc3[nH]2)=N/C1=C\c1[nH]c(C)cc1C` [OBATOCLAX MESYLATE], for which the half-maximal inhibitory concentration (IC50) in experiment [1] is 61.3 nM; in experiment [2] it was 253 nM; in experiment [3], 467 nM; in experiment [4], 5090 nM; in experiment [5], 124 nM; in experiment [6], 426 nM. The IC50 is 1460 nM in [7]; 52.4 nM in [8]; 92.5 nM in experiment [9]; 667 nM in [10]; 83.3 nM in [11]; under 62.5 nM in experiment [12]. Besides, the IC50 in experiment [13] was 185 nM; in experiment [14] it was 50.6 nM; in experiment [15], 2180 nM; in experiment [16], 2230 nM; in experiment [17] it was 214 nM; in experiment [18], 1890 nM. For the same compound, the half-inhibitory concentration (IC50) in experiment [19] was under 62.5 nM; in [20], 567 nM; in experiment [21], 781 nM; in experiment [22] it was 347 nM; in experiment [23], over 16000 nM; in [24], 38.4 nM. Also, the IC50 in experiment [25] was 1340 nM; in [26], 1750 nM; in [27], under 62.5 nM; in experiment [28], 129 nM; in [29], 29.5 nM; in experiment [30], 406 nM. The IC50 is under 62.5 nM in experiment [31]; 1320 nM in experiment [32]; 828 nM in [33]; 30.4 nM in experiment [34]; 88 nM in experiment [35]; 752 nM in experiment [36]. Also, the half-maximal inhibitory concentration (IC50) in experiment [37] was determined as 132 nM; in [38] it was 58.9 nM; in [39], 79.1 nM; in [40] it was 508 nM; in experiment [41] it was 26 nM; in [42], 1160 nM. The half-maximal inhibitory concentration (IC50) is 814 nM in [43], 436 nM in [44], 523 nM in [45] and 50.5 nM in experiment [46].

Turning to `CCN(CC)CCNC(=O)c1c(C)[nH]c(/C=C2\C(=O)Nc3ccc(F)cc32)c1C` [SUNITINIB], the IC50 in experiment [4] was over 8000 nM; in experiment [19] it was 2900 nM; in [47], over 8000 nM; in [21], over 8000 nM; in experiment [23] it was over 8000 nM; in experiment [24], over 8000 nM. The IC50 in [29] and in [42] was over 8000 nM throughout.

As for `COc1cc(N2CCN(C)CC2)ccc1Nc1ncc2c(n1)N(C)c1ccccc1C(=O)N2C`, the IC50 was over 8000 nM in experiment [4]; 4960 nM in experiment [19]; over 8000 nM in experiment [47]; over 8000 nM in experiment [21]; over 8000 nM in experiment [23]; over 8000 nM in experiment [24]. Also, the half-inhibitory concentration (IC50) in [29] was 2230 nM; in experiment [42], over 8000 nM.

As for `OCCCNc1cc(-c2ccnc(Nc3cccc(Cl)c3)n2)ccn1`, the IC50 was over 256 nM in experiment [4]; 46.8 nM in experiment [19]; over 256 nM in experiment [47]; over 256 nM in [21]; over 256 nM in [23]; 90.3 nM in experiment [24]. Also, the concentration for half-maximal inhibition (IC50) in experiment [29] and in experiment [42] was over 256 nM in each case.

Turning to `COc1cc2ncn(-c3cc(OCc4ccccc4C(F)(F)F)c(C(N)=O)s3)c2cc1OC` [GW843682X], the IC50 is over 256 nM in experiment [4]; 24.5 nM in experiment [19]; over 256 nM in experiment [47]; over 256 nM in experiment [21]; over 256 nM in experiment [23]; over 256 nM in experiment [24]. Also, the IC50 in [29] and in experiment [42] was over 256 nM throughout.

For `CC(=O)O[C@H]1C(=O)[C@@]2(C)[C@H]([C@H](OC(=O)c3ccccc3)[C@]3(O)C[C@H](OC(=O)[C@H](O)[C@@H](NC(=O)c4ccccc4)c4ccccc4)C(C)=C1C3(C)C)[C@]1(OC(C)=O)CO[C@@H]1C[C@@H]2O` [PACLITAXEL], the half-maximal inhibitory concentration (IC50) is over 102 nM in [4]; 12.1 nM in experiment [19]; over 102 nM in experiment [47]; over 102 nM in [21]; over 102 nM in experiment [23]; 38.6 nM in [24]. In addition, the 50% inhibitory concentration (IC50) in [29] and in experiment [42] was over 102 nM throughout.

`COc1cc(-c2nn([C@H]3CC[C@H](N4CCN(C(C)=O)CC4)CC3)c3ncnc(N)c23)ccc1NC(=O)c1cc2ccccc2n1C`: the IC50 in [4] is over 5120 nM; in [19] it was 2240 nM; in experiment [47], over 5120 nM; in experiment [21], over 5120 nM; in experiment [23], over 5120 nM; in experiment [24], over 5120 nM. In addition, the concentration for half-maximal inhibition (IC50) in experiment [29] and in experiment [42] was over 5120 nM in each case.

Regarding `CC[C@H](CO)Nc1nc(NCc2ccccc2)c2ncn(C(C)C)c2n1` [SELICICLIB], the IC50 in experiment [4], in [19], in experiment [47], in experiment [21], in experiment [23] and in [24] was over 16000 nM throughout. In addition, the half-inhibitory concentration (IC50) in experiment [29] and in [42] was over 16000 nM in each case.

In the case of `COc1cc2ncn(-c3cc(OCc4ccccc4S(C)(=O)=O)c(C#N)s3)c2cc1OC` [GSK-319347A], the IC50 in experiment [4], in experiment [19], in experiment [47], in [21], in [23] and in [24] was over 5000 nM in each case. Further, the IC50 in experiment [29] and in experiment [42] was over 5000 nM in each case.

Take `N[C@@H](CSC(c1ccccc1)(c1ccccc1)c1ccccc1)C(=O)O` [S-TRITYL-L-CYSTEINE]: the IC50 in experiment [4] is over 5120 nM; in [19] it was 676 nM; in experiment [47], over 5120 nM; in experiment [21], over 5120 nM; in experiment [23] it was over 5120 nM; in experiment [24], 3480 nM. Further, the concentration for half-maximal inhibition (IC50) in experiment [29] and in [42] was over 5120 nM throughout.

With `Cc1ccc(-c2c(C(=O)CCl)n(CCCO)c3ncnc(N)c23)cc1`, the 50% inhibitory concentration (IC50) in experiment [4], in experiment [19], in [47], in experiment [21], in experiment [23] and in experiment [24] was over 4000 nM in each case. Also, the half-maximal inhibitory concentration (IC50) in experiment [29] and in experiment [42] was over 4000 nM in each case.

As to `C#Cc1cccc(Nc2ncnc3cc(OCCOC)c(OCCOC)cc23)c1` [ERLOTINIB], the IC50 in [4], in [47], in [21], in experiment [23], in experiment [24] and in experiment [29] was over 2000 nM throughout. In [42], the IC50 is over 2000 nM.

These data come from ChEMBL document CHEMBL1201861, “Genomics of Drug Sensitity in Cancer screening data, Wellcome Trust Sanger Institute”.
